Data reported in article PMC12454639, “Direct disassembly of α-syn preformed fibrils into α-syn monomers by an all-D-peptide” (NPJ Parkinson's Disease, 2025).
Square brackets hold non-standard residues; d marks the D form. Peptide text beside a SMILES is read from it.

How the values were obtained:
small α-syn PFF = test: Western blot of small α-syn PFF; format: biochemical; details: 200 nM PFF with 250, 500, 750, 1000 nM SVD-1a, 72 h, 37 °C; antibody Syn211
Method: Samples of 200 nM small α-syn PFF or α-syn monomer were incubated with 0, 250, 500, 750 and 1000 nM SVD-1a for 72 h at 37 °C in PBS pH 7.4 with 0.05% sodium azide. Samples were then resolved via SDS–PAGE on 12% TGX gels (Bio-Rad, Hercules, USA) using the Mini-PROTEAN Tetra Cell (Bio-Rad, Hercules, USA). Proteins were transferred to a PVDF membrane (0.2 µm pore size) (Trans-Blot Turbo Mini PVDF Transfer Pack, Bio-Rad, Hercules, USA) at 25 V, 1.3 A for 7 min. Blocking of the membrane was carried out with 2% nonfat dried milk powder in TBS + 0.05% Tween 20 for 1 h at room temperature. Anti-α-synuclein antibody Syn211 (RRID:AB_628318, Santa Cruz Biotechnology, Dallas, TX, USA) was used as primary antibody at a concentration of 1 µg/ml in TBS-T for 1 h at RT. As a secondary antibody, an HRP-coupled goat anti-mouse IgG (RRID:AB_228307, Thermo Fisher Scientific, Waltham, MA, USA) was used at 0.2 µg/ml in TBS-T for 1 h at RT. […]
Supplementary Figure 11: Western blot of small α-syn PFF samples incubated with SVD-1a. […] A PFF and monomer sample that were incubated without SVD-1a served as controls. α-Syn was detected with Syn211. A prominent monomer band was present between the 15 kDa- and 20 kDa marker bands, detected with shorter exposure time (left). […] In the upper part of the blot, above the marker range, PFFs were detected using longer exposure time due to weaker signal (right).

[1] = test system: 15N-labeled full-length acetyl-α-syn; test: NMR paramagnetic relaxation enhancement (PRE); format: binding; details: spin-labeled SVD-1a (SVD-1a_Cys_MTSL), 1:1 with α-syn, 10 °C
Method: The spin-labeled analog of SVD-1a was prepared by covalent attachment of MTSL (S-(1-oxyl-2,2,5,5-tetramethyl-2,5-dihydro-1H-pyrrol-3-yl)methyl methanesulfonothioate, Toronto Research Chemicals, USA) to the C-terminal D-cysteine residue of SVD-1a_Cys. MTSL was dissolved in DMF (N,N-dimethylformamide) with a concentration of 20 mM and diluted in 200 mM HEPES, pH 7.6, to a final concentration of 2 mM. 900 µl of the solution was then added to 1 mg of lyophilized SVD-1a_Cys to create a fivefold molar excess of MTSL compared to SVD-1a_Cys. […]
NMR paramagnetic relaxation enhancement (PRE) data were recorded on 25 µM ^15N-labeled full-length acetyl-α-syn in the presence of 25 µM paramagnetically labeled (but not isotopically enriched) SVD-1a_Cys_MTSL (using a MTSL spin-label covalently attached to the SVD-1a C-terminus), resulting in a 1:1 ratio of α-syn: SVD-1a. Intensities (Ipara) were extracted from 2D ^1H–^15N Best-TROSY NMR spectra recorded at 600 MHz and 10 °C, each with 128 scans per increment, resulting in a total experimental time of 16 h per spectrum. […] The diamagnetic reference spectra and intensities (Idia) were recorded back-to-back and under identical conditions as for the paramagnetic sample. […]

## CC[C@@H](C)[C@@H](NC(=O)[C@@H](Cc1c[nH]cn1)NC(=O)[C@@H](CCC(=O)O)NC(=O)[C@@H](CCC(N)=O)NC(=O)[C@@H](Cc1c[nH]c2ccccc12)NC(=O)[C@@H](Cc1ccc(O)cc1)NC(=O)[C@H](NC(=O)[C@@H](CCC(=O)O)NC(=O)[C@@H](Cc1c[nH]cn1)NC(=O)[C@H](NC(=O)[C@H]1CCCN1C(=O)[C@@H](CC(C)C)NC(=O)[C@H](N)CCCNC(=N)N)[C@H](C)O)[C@H](C)O)C(=O)N[C@H](Cc1c[nH]c2ccccc12)C(=O)N[C@H](Cc1c[nH]cn1)C(=O)N[C@H](C)C(=O)N[C@H](CCCNC(=N)N)C(=O)N[C@H](CCCNC(=N)N)C(=O)N[C@H](CCCNC(=N)N)C(=O)N[C@H](CCCNC(=N)N)C(=O)N[C@H](CCCNC(=N)N)C(N)=O [SVD-1a] (H-[dR][dL][dP][dT][dH][dE][dT][dY][dW][dQ][dE][dH][dI][dW][dH][dA][dR][dR][dR][dR][dR]-NH2)
Small α-syn PFF
  intensity of higher MW α-syn bands: progressively reduced in presence of higher SVD-1a concentrations
[1]
  site of interaction with α-syn (PRE): interacts with the entire α-syn monomer, with the C-terminal part showing the strongest interaction
